These results are taken from patent US12454516B2, “Nitric oxide releasing prodrugs of MDA and MDMA” (priority 2021, dated 2025).

In general, half-life refers to the time in which the quantity being followed falls by half.

Structures are written as SMILES.

A short description of data set [1]: Stability of Prodrug 2-1 in plasma (human). It counts as in vitro ADME.
The nature of data set [2]: Stability of Prodrug 2-1 in plasma (rat). The class given is in vitro ADME.
Data set [3] is described as follows: Stability of Prodrug 2-1 in plasma (mouse). The class given is in vitro ADME.
A short description of a further data set: Solubility in FaSSIF. It counts as physicochemical. The conditions noted are these: read-out: Solublity (uM) FaSSIF.
Data set [4] can be described thus: Stability in SGF with pepsin. It counts as in vitro ADME.
The nature of data set [5]: Stability in SGF without pepsin. It counts as in vitro ADME.
The next data set can be described thus: physchem. The conditions noted are these: buffer, pH 6.5.

Turning to `O=C(O)CCCc1ccc(N(CCCl)CCCl)cc1` [Chlorambucil, reference compound], in the data set “Stability in PBS pH 6.5”, the “Remaining Percentage (%) 0 min” value was 100%, the “Remaining Percentage (%) 30 min” value is recorded as 62.6%, the “Remaining Percentage (%) 60 min” value stood at 39.9% and the “Remaining Percentage (%) 120 min” value worked out at 15.07%. For the same molecule, in “Stability in PBS pH 6.5”, the “Remaining Percentage (%) 240 min” value turned out to be 2.05%.

Take `C[C@H](Cc1ccc2c(c1)OCO2)NC(=O)CCCO[N+](=O)[O-]` [Compound 2-1, (R)-4-((1-(benzo[d][1,3]dioxol-5-yl)propan-2-yl)amino)-4-oxobutyl nitrate]: the half-life was 15.1 h in data set [1]; 3.84 h in data set [2]; 26.2 h in data set [3]; 13.5 h in data set [4]; 14.3 h in data set [5]; 13.4 h in the data set “physchem”. Also, the “Remaining Percentage (%) 0 min” value in data set [1] is 100.00%; in data set [2] it was 100.00%; in data set [3], 100.00%; in data set [4], 100%; in data set [5] it was 100%; in the data set “Stability in PBS pH 6.5” it was 100%. In addition, the “Remaining Percentage (%) 15 min” value in data set [1] came out at 100.94%; in data set [2] it was 96.93%; in data set [3] it was 95.13%. Also, the “Remaining Percentage (%) 30 min” value is on record as 102.03% in data set [1]; 93.53% in data set [2]; 98.19% in data set [3]; 98.88% in data set [4]; 95.42% in data set [5]; 104.05% in the data set “Stability in PBS pH 6.5”. The “Remaining Percentage (%) 60 min” value in data set [1] was determined as 90.66%; in data set [2], 81.00%; in data set [3] it was 95.02%; in data set [4] it was 98.96%; in data set [5], 99.51%; in the data set “Stability in PBS pH 6.5”, 105.81%. For the same molecule, the “Remaining Percentage (%) 120 min” value came out at 93.79% in data set [1]; 70.84% in data set [2]; 93.59% in data set [3]; 89.53% in data set [4]; 93.54% in data set [5]; 98.20% in the data set “Stability in PBS pH 6.5”. The solubility in the data set “Solubility in FaSSIF” was 284 µM. Moreover, the “Remaining Percentage (%) 240 min” value in data set [4] came to 82.75%; in data set [5] it was 81.87%; in the data set “Stability in PBS pH 6.5”, 83.83%.

As for `CC[C@H]1OC(=O)[C@H](C)[C@@H](O[C@H]2C[C@@](C)(OC)[C@@H](O)[C@H](C)O2)[C@H](C)[C@@H](O[C@@H]2O[C@H](C)C[C@H](N(C)C)[C@H]2O)[C@](C)(O)C[C@@H](C)C(=O)[C@H](C)[C@@H](O)[C@]1(C)O` [Erythromycin, reference compound], in data set [4], the “Remaining Percentage (%) 0 min” value is 100%, the “Remaining Percentage (%) 30 min” value was 59.9%, the “Remaining Percentage (%) 60 min” value is given as 39.02% and the “Remaining Percentage (%) 120 min” value is recorded as 12.40%. Moreover, the “Remaining Percentage (%) 240 min” value in data set [4] is 1.57%. In addition, in data set [5], the “Remaining Percentage (%) 0 min” value came to 100%, the “Remaining Percentage (%) 30 min” value is listed as 60.53%, the “Remaining Percentage (%) 60 min” value amounted to 34.86% and the “Remaining Percentage (%) 120 min” value came out at 11.45%. In data set [5], the “Remaining Percentage (%) 240 min” value was determined as 1.64%.

As for `CC[C@H](C)C(=O)O[C@H]1C[C@@H](C)C=C2C=C[C@H](C)[C@H](CC[C@@H]3C[C@@H](O)CC(=O)O3)[C@H]21` [Lovastatin, reference compound], in data set [2], the half-life came to 0.0747 h, the “Remaining Percentage (%) 0 min” value amounted to 100.00%, the “Remaining Percentage (%) 15 min” value is recorded as 9.82% and the “Remaining Percentage (%) 30 min” value is 0.00%. Also, in data set [2], the “Remaining Percentage (%) 60 min” value stood at 0.00% and the “Remaining Percentage (%) 120 min” value worked out at 0.00%.

With `CC(C)[N+](C)(CCOC(=O)C1c2ccccc2Oc2ccccc21)C(C)C` [Propantheline, reference compound], in data set [1], the half-life stood at 0.246 h, the “Remaining Percentage (%) 0 min” value is 100.00%, the “Remaining Percentage (%) 15 min” value came out at 72.22% and the “Remaining Percentage (%) 30 min” value came out at 39.13%. Besides, in data set [1], the “Remaining Percentage (%) 60 min” value is listed as 6.46% and the “Remaining Percentage (%) 120 min” value turned out to be 0.12%. In data set [3], the half-life came to 0.449 h, the “Remaining Percentage (%) 0 min” value was determined as 100.00%, the “Remaining Percentage (%) 15 min” value turned out to be 72.20% and the “Remaining Percentage (%) 30 min” value is on record as 49.21%. In addition, in data set [3], the “Remaining Percentage (%) 60 min” value is 22.77% and the “Remaining Percentage (%) 120 min” value is 4.69%.
